# Measurements taken from ChEMBL document CHEMBL1201862, “PubChem BioAssay data set” (2004).
#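 Cultured in 96-well plates, cells were exposed to test compound for 48 hours across five concentrations. GI50: concentration for 50% inhibition of growth.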 Activity calls are given as the source filed them. No stated cut-off is given here; in the data, active = GI50 up to about 1.1 µM and inactive = higher.
# Tests used:
# Test in all cases: NCI anticancer screen, dose series, 48 h
# MDA-N = system: MDA-N
# DLD-1 = system: DLD-1
# SNB-78 = system: SNB-78
# M19-MEL = system: M19-MEL
# DMS-273 = system: DMS-273
# RXF 631 = system: RXF 631
# KM-20L2 = system: KM-20L2
# XF498 = system: XF498
# DMS-114 = system: DMS-114
SMILES,GI50 (MDA-N),GI50 (M19-MEL),GI50 (DMS-273),GI50 (KM-20L2),also measured
CS(=O)(=O)OC1CN2CCC1CC2 (stereo unspecified),> 100 µM (inactive),,,,
CC(=O)NNc1nc(C)c(C(=O)NNC(=O)C(=O)Nc2c(C)cccc2C)s1,,32.7 µM (inactive),31.8 µM (inactive),35.2 µM (inactive),GI50 (DLD-1): 45.5 µM (inactive); GI50 (SNB-78): 36.1 µM (inactive); GI50 (RXF 631): 26.2 µM (inactive)
COc1ncnc2c1cnn2Cc1cn(CCCCO)nn1,> 100 µM (inactive),,,,
O=C1CSC(=S)N1c1ccco1,19.8 µM (inactive),,,,
COc1cccc(/N=N/C(=N\NC(=O)c2ccc(C)cc2)c2ccc(N(CCC#N)CCC#N)cc2C)c1,> 100 µM (inactive),,,,
CCOC(=O)c1[nH]c2c(OC)n[n+]([O-])cc2c1[N+](=O)[O-],,24.8 µM (inactive),,15.5 µM (inactive),GI50 (DLD-1): 17.2 µM (inactive); GI50 (XF498): 16.1 µM (inactive); GI50 (DMS-114): 22.2 µM (inactive); GI50 (SNB-78): 19.8 µM (inactive)
Cc1cc(C)nc(NS(=O)(=O)c2ccc(NC(=O)c3cccn4c(=O)c5ccccc5nc34)cc2)n1,,31.6 µM (inactive),34.4 µM (inactive),> 100 µM (inactive),GI50 (DLD-1): 31.9 µM (inactive); GI50 (XF498): 54.2 µM (inactive); GI50 (SNB-78): 39.4 µM (inactive)
CCOP(=O)(OCC)c1ccc(=O)[nH]c1-c1cccs1,> 100 µM (inactive),,,,
Cc1ccc(C2=CC(=O)/C(=C\C(=O)c3ccc(Br)cc3)O2)c(C)c1,6.11 µM (inactive),,,,
CC1=C(OC2OC(CO)C(O)C(O)C2O)C(=O)C[C@H]2C1=CC[C@@H]1[C@@]2(C)C(=O)C[C@]2(C)[C@@H]([C@@](C)(O)C(=O)CCC(C)(C)O)[C@H](O)C[C@@]12C (stereo partly specified),> 100 µM (inactive),,,,
O=C1[C@@H]2C(c3cccc([N+](=O)[O-])c3)=NO[C@@H]2C(=O)N1c1ccc(Cc2ccc(N3C(=O)[C@H]4C(c5cccc([N+](=O)[O-])c5)=NO[C@H]4C3=O)cc2)cc1,,> 100 µM (inactive),> 100 µM (inactive),> 100 µM (inactive),GI50 (DLD-1): > 100 µM (inactive); GI50 (DMS-114): > 100 µM (inactive); GI50 (SNB-78): > 100 µM (inactive); GI50 (RXF 631): > 100 µM (inactive)
CCc1ccc2c(c1)/C(=C1/Nc3ccccc3/C1=N/O)C(=O)N2,7.53 µM (inactive),,,,
Cc1ccc2nc(Cl)c(/C=N/N3C(=O)/C(=C/Cc4ccco4)N=C3c3ccccc3)cc2c1,16.9 µM (inactive),,,,
Cc1cc(O)cc2c1O[C@@]1(C)CCC3[C@@]4(C)CC[C@H](O)C(C)(C)C4CC[C@@]3(C)[C@H]1C2 (stereo partly specified),,11 µM (inactive),4.05 µM (inactive),,GI50 (DLD-1): 4.06 µM (inactive); GI50 (DMS-114): 5.09 µM (inactive); GI50 (SNB-78): 5.98 µM (inactive)
COc1cc(C2SC(=N)Nc3c2c(C)nn3C(=O)c2ccc(Cl)cc2)ccc1O (stereo unspecified),0.236 µM (active),,,,
Cc1ccc(S(=O)(=O)N/N=C2\CCCCC23CCC(=O)NC3)cc1 (stereo unspecified),,> 100 µM (inactive),> 100 µM (inactive),> 100 µM (inactive),GI50 (DLD-1): > 100 µM (inactive); GI50 (DMS-114): > 100 µM (inactive); GI50 (SNB-78): > 100 µM (inactive); GI50 (RXF 631): > 100 µM (inactive)

SMILES,GI50 (MDA-N),GI50 (M19-MEL),GI50 (DMS-273),GI50 (KM-20L2),also measured
CCOC(=O)c1ccc(C)c(/N=N/N(C)C)c1,,> 100 µM (inactive),> 100 µM (inactive),> 100 µM (inactive),GI50 (DLD-1): > 100 µM (inactive); GI50 (XF498): > 100 µM (inactive); GI50 (DMS-114): > 100 µM (inactive)
CN1CCN(C2CC(=O)c3c(Cl)sc(Cl)c32)CC1 (stereo unspecified),9.02 µM (inactive),,,,
COC(=O)CC1C(=O)OCc2c1cc1n(c2=O)Cc2c-1nc1ccccc1c2OC (stereo unspecified),,69.7 µM (inactive),12.7 µM (inactive),> 100 µM (inactive),GI50 (XF498): > 100 µM (inactive); GI50 (DMS-114): 34.3 µM (inactive)
Cc1ccc(Cc2n[nH]c(=O)n2Nc2ccccc2)cc1,> 100 µM (inactive),,,,
NCCCc1ccc2oc3ccccc3c2c1,15.6 µM (inactive),,,,
CC1OC(n2cc(F)c(=O)[nH]c2=O)C(O[Si](C)(C)C(C)(C)C)C1O[Si](C)(C)C(C)(C)C (stereo unspecified),15.5 µM (inactive),,,,
COC(=O)c1c(C)c2c(c(C)c1O)OC(=O)c1c(C)cc(O)c(C=O)c1O2,> 100 µM (inactive),,,,
CN(CCNC(=O)c1n[nH]c2c1Cc1ccccc1-2)CCNC(=O)c1n[nH]c2c1Cc1ccccc1-2,16.5 µM (inactive),,,,
C[C@@]12C[C@@H](c3ccccc3O1)N1CCSC1=N2,> 100 µM (inactive),,,,
O=C(CC1(O)C(=O)Nc2ccccc21)c1ccncc1 (stereo unspecified),,> 100 µM (inactive),> 100 µM (inactive),> 100 µM (inactive),GI50 (DLD-1): > 100 µM (inactive); GI50 (DMS-114): > 100 µM (inactive); GI50 (SNB-78): > 100 µM (inactive)
O=C(Nc1cccc2ccccc12)c1ccccc1,77.6 µM (inactive),,,,
C[N+](C)(C)CCCCCc1c2nc(c(CCCCC[N+](C)(C)C)c3ccc([nH]3)c(CCCCC[N+](C)(C)C)c3nc(c(CCCCC[N+](C)(C)C)c4ccc1[nH]4)C=C3)C=C2,> 100 µM (inactive),,,,
O=C1CC(O)C=C1Nc1ccc(Cl)cc1 (stereo unspecified),,25.2 µM (inactive),13.1 µM (inactive),0.708 µM (active),GI50 (DLD-1): 22.3 µM (inactive); GI50 (DMS-114): 26.4 µM (inactive); GI50 (SNB-78): 39.6 µM (inactive); GI50 (RXF 631): 31.4 µM (inactive)
CCc1cccc(NC(=O)c2cc(/C=C/c3ccccc3)nc(S)n2)c1,,> 100 µM (inactive),> 100 µM (inactive),> 100 µM (inactive),GI50 (DMS-114): > 100 µM (inactive); GI50 (SNB-78): > 100 µM (inactive)
CC1=NN=C(N)N/C1=C\C(Sc1ccc(Cl)cc1)c1ccc(Cl)cc1Cl (stereo unspecified),19.7 µM (inactive),,,,
